{
  "source": "ChEMBL document CHEMBL1201862",
  "about": "“PubChem BioAssay data set” (2004)",
  "key": {"Leucine aminopeptidase": {"target": "Leucine aminopeptidase (Plasmodium falciparum 3D7, UniProt Q8IL11)", "sequence (Q8IL11 whole entry)": "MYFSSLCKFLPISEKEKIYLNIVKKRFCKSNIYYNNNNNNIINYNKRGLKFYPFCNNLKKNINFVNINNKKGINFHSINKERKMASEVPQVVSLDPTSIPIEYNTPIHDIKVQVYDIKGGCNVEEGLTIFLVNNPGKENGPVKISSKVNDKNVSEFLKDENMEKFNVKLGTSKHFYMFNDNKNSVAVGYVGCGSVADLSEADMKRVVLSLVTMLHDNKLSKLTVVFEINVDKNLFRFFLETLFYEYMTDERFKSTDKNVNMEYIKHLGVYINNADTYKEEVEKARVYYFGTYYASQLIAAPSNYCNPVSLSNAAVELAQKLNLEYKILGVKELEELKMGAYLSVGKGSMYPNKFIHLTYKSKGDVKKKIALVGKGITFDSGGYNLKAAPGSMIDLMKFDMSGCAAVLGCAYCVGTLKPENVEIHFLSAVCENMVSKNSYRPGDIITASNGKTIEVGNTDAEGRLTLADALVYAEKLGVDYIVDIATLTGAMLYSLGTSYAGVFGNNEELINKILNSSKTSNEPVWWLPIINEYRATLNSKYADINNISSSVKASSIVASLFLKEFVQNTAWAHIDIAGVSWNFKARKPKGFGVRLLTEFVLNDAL", "assay": "P. falciparum M17LAP inhibitors, primary screen, biochemical, fluorogenic H-Leu-NHMec substrate, 1536-well (AID 1619)", "format": "functional"}, "HT-1080": {"system": "HT-1080", "assay": "cytotoxicity in HT1080 fibrosarcoma cells, cell-based, fluorescence readout (AID 620)", "format": "functional", "settings": "Homo sapiens"}, "[1]": {"target": "Luciferin 4-monooxygenase (Photinus pyralis, UniProt P08659)", "sequence (P08659 whole entry)": "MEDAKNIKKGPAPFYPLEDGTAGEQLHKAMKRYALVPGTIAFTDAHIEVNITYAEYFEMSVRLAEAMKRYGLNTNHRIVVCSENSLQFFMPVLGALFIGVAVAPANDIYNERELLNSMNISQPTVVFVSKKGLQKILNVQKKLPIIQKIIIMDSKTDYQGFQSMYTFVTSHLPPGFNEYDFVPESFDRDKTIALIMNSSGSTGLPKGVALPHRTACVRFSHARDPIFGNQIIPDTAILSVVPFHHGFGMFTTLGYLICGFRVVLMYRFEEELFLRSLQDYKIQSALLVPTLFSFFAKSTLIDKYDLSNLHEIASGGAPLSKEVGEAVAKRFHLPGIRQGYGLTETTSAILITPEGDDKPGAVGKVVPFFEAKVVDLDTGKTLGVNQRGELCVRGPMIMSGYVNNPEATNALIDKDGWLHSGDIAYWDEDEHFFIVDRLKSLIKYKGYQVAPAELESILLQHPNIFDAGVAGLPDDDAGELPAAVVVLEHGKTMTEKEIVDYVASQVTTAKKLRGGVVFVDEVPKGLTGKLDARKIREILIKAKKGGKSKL", "assay": "Counter Screen for Luciferase-based Assay Positives. [Related pubchem assays: 620, 618, 411 ]"}, "INS1": {"system": "INS1", "assay": "beta cell apoptosis inhibitors, cytokine rescue, dose response, luminescence, retest (AID 449756);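 also: cell death triggered by IL-1 beta plus TNF-alpha plus IFN-gamma mixture; protective hits raise ATP signal compared with cytokine alone wells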", "format": "functional, cell-based", "settings": "Rattus norvegicus"}, "[2]": {"assay": "Luminescence-based counterscreen assay for KLF5 inhibitors: dose response cell-based high throughput screening assay to identify cytotoxic compounds using the IEC-6 intestinal epithelial cell line. [Related pubchem assays: 1700 (Primary screen.), 1834 (Confirmation screen.), 1858 (Summary AID.), 1905 (Counterscreen.)]", "format": "functional"}, "[3]": {"system": "Streptococcus sp. 'group A'", "assay": "growth inhibition of control SK(-) GAS strain, dose response, counter-screen for streptokinase expression inhibitor project, luminescence, kanamycin, BacTiterGlo, confirmation (AID 1900)", "format": "functional, organism-based"}, "Streptococcus": {"system": "Streptococcus", "assay": "Group A Streptococcus viability loss, dose response, counter-screen for streptokinase expression inhibitor project, luminescence, BacTiterGlo (AID 1915);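 also: potency for reduction of bacterial viability or growth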", "format": "functional, organism-based"}, "[4]": {"assay": "inhibitors of intracellular T. cruzi replication, confirmation, NIH3T3 host cells, beta-gal luminescence (AID 2044);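 also: luminescent beta-galactosidase reporter signal from transgenic T. cruzi replicating inside host cells; inhibitors lower the luminescence signal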", "format": "functional, cell-based"}, "[5]": {"target": "T1, Microphthalmia-associated transcription factor (Homo sapiens, UniProt O75030)", "T1 sequence (O75030 whole entry)": "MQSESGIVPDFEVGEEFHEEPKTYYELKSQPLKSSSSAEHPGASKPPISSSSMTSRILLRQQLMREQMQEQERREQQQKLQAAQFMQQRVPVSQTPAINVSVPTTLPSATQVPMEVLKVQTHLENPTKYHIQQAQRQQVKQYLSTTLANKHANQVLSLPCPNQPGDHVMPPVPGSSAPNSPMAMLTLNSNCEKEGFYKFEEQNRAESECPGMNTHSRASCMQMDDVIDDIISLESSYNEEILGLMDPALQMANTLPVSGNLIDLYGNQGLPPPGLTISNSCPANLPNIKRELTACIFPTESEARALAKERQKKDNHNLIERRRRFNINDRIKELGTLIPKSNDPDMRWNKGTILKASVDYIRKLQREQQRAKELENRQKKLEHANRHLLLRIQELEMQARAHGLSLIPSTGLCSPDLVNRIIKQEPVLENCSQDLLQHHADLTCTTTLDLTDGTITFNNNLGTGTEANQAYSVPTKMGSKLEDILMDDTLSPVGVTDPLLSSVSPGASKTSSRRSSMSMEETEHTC", "assay": "TRPM1 promoter luciferase signal decrease, dose response, MITF inhibitor project, cell-based, SK-MEL-5, cherry-picked, set 3 (AID 493073)", "format": "functional"}, "cells [6]": {"assay": "cells", "format": "functional, cell-based"}, "[7]": {"assay": "cytotoxicity toward NIH3T3 fibroblasts, dose response, counter-screen, cell-based, ATP luminescence, mouse fibroblasts (AID 2010);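 also: cells exposed to compound for about 90 hours before reading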", "format": "functional"}, "cells [8]": {"assay": "cells", "format": "functional, cell-based", "remark": "listed apart in the source"}, "[9]": {"target": "Eukaryotic translation initiation factor 4H (Homo sapiens, UniProt Q15056)", "assay": "human eIF4H binding inhibitors, primary screen, translation initiation inhibitor project, biochemical, uHTS, fluorescence polarization (AID 2012)"}, "[10]": {"target": "Polyadenylate-binding protein 1 (Homo sapiens, UniProt P11940)", "sequence (P11940 whole entry)": "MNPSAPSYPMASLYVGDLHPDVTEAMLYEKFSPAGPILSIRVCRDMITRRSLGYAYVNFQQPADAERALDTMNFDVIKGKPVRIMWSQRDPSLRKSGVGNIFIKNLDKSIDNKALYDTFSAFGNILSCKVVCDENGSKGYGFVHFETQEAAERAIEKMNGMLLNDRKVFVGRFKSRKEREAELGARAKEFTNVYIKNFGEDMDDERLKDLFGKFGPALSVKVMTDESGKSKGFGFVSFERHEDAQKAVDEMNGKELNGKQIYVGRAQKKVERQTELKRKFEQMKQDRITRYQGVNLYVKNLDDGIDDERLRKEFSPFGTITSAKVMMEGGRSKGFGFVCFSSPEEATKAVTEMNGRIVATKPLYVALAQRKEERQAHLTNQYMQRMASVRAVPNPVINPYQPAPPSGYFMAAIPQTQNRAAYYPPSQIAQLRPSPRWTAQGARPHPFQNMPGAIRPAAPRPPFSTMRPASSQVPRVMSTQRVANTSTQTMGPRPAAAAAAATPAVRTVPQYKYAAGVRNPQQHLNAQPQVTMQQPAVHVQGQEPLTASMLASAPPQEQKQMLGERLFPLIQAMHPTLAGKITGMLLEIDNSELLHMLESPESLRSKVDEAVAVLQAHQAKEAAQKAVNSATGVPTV", "assay": "PABP poly(A) RNA binding inhibitors, primary screen, biochemical, fluorescence polarization, uHTS (AID 2014)"}, "Estrogen receptor": {"target": "T2, Estrogen receptor (Homo sapiens, UniProt P03372)", "T2 sequence (P03372 whole entry)": "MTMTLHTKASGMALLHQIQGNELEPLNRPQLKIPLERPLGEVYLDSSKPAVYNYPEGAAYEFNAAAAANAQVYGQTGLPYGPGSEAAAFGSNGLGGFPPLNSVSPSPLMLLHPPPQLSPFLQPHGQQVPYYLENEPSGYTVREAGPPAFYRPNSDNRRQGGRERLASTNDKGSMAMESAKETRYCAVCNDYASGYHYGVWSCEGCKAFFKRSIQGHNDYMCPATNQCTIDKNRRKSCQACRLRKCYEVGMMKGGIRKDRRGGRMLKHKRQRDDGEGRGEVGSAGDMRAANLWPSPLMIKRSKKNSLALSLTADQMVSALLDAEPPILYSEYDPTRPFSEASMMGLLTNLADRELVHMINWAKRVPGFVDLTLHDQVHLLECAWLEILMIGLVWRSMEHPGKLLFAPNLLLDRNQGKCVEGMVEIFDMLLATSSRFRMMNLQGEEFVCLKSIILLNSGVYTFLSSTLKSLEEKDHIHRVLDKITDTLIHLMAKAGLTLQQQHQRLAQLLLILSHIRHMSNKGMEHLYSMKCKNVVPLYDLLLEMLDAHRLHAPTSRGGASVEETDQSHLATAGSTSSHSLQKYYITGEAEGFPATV", "assay": "potentiators of ERα–SRC-1 coactivator binding, dose response, biochemical, TR-FRET, ERα LBD (AID 737)"}, "[11]": {"assay": "enhancers of respiration in Yfh1-depleted yeast, dose response, Friedreich's ataxia, plus single-dose screen (AID 1465);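 also: yeast depleted of Yfh1p frataxin homolog grown on glycerol needing respiration; WST-1 tetrazolium dye reduction as measure of cellular dehydrogenase metabolic activity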", "format": "functional"}, "Large T antigen": {"target": "Large T antigen (Simian virus 40, UniProt P03070)", "sequence (P03070 whole entry)": "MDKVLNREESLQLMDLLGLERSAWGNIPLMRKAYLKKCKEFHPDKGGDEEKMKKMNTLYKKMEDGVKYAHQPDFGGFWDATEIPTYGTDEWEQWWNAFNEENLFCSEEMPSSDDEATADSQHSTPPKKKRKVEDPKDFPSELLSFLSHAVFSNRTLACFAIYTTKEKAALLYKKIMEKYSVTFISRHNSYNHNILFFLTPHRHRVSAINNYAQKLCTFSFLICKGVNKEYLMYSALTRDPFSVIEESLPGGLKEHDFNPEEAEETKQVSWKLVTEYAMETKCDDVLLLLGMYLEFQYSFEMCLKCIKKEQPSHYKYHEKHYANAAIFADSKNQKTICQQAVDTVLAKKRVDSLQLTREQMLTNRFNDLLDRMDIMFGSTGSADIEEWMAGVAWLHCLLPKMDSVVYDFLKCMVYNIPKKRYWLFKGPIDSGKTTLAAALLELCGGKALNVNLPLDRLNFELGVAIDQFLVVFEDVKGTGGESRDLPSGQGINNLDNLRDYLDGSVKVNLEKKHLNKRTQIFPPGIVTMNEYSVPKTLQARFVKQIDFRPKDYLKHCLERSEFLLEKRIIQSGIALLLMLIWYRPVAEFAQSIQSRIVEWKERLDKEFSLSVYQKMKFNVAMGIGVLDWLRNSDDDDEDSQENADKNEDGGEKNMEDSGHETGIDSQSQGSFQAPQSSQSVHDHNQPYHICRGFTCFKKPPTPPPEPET", "format": "functional, Betapolyomavirus macacae"}, "[12]": {"target": "T3, Mannose-6-phosphate isomerase (Homo sapiens, UniProt P34949)", "T3 sequence (P34949 whole entry)": "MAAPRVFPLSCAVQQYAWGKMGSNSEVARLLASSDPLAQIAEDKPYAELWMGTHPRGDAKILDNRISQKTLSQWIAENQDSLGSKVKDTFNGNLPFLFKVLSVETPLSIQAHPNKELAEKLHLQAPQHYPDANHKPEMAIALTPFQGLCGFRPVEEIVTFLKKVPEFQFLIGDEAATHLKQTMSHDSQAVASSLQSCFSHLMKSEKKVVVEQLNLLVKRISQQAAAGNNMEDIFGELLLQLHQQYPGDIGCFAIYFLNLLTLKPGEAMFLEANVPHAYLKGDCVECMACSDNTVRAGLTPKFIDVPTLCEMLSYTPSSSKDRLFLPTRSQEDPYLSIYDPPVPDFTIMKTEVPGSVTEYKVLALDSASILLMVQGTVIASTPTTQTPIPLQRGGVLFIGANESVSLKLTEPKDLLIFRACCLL", "assay": "inhibitors of human PMI, primary screen, biochemical, fluorescence intensity, coupled assay (AID 1209)"}, "[13]": {"assay": "Luminescence Cell-Based Dose Confirmation HTS to Identify Activators of 5'UTR Stem-Loop Driven Alpha-Synuclein mRNA Translation in H4 Neuroglioblastoma Cells. [Related pubchem assays: 1829 (Project Summary), 1814 (Primary HTS)]", "format": "functional"}, "H4": {"system": "H4", "assay": "Luminescence Cell-Based Dose Response HTS to Identify Activators of 5'UTR Stem-Loop Driven Prion Protein mRNA Translation in H4 Neuroglioblastoma Cells. [Related pubchem assays: 1829 (Project Summary), 1814 (Primary HTS)]", "format": "functional", "settings": "Homo sapiens"}, "[14]": {"assay": "Luminescence Cell-Based Dose Response HTS to Identify Activators of Luciferase Translation or Activity in H4 […] Cells. [Related pubchem assays: 1829 (Project Summary), 1814 (Primary HTS)]", "format": "functional"}},
  "note": "Active and inactive are the calls of the source.",
  "data": [
    {"smiles": "COc1ccc2oc(C)c(C(=O)NN)c2c1", "values": [
      {"measurement": "IC50", "setting": "Leucine aminopeptidase", "value": "26.6 µM (active)"}
    ]},
    {"smiles": "CCCOc1ccc(-c2nnc(-c3cccs3)o2)cc1", "values": [
      {"measurement": "EC50", "setting": "HT-1080", "value": "> 50 µM (not active)"},
      {"measurement": "EC50", "setting": "[1]", "value": "7.29 µM (active)"}
    ]},
    {"smiles": "Nc1[nH]ncc1-c1ccc(Cl)cc1", "values": [
      {"measurement": "IC50", "setting": "Leucine aminopeptidase", "value": "38.2 µM (active)"}
    ]},
    {"smiles": "COc1ccc(C(=O)N/N=C/c2cc(Br)ccc2O)cc1OC", "values": [
      {"measurement": "AC50", "setting": "INS1", "value": "1.97 µM (active)"},
      {"measurement": "IC50", "setting": "[2]", "value": "12.2 µM (not active)"},
      {"measurement": "EC50", "setting": "[3]", "value": "0.959 µM (active)"},
      {"measurement": "EC50", "setting": "Streptococcus", "value": "5.78 µM (active)"},
      {"measurement": "EC50", "setting": "[4]", "value": "3.76 µM (active)"},
      {"measurement": "AC50", "setting": "[5]", "value": "4.76 µM (active)"},
      {"measurement": "EC50", "setting": "cells [6]", "value": "> 350 µM (not active)"},
      {"measurement": "EC50", "setting": "[7]", "value": "> 60 µM (not active)"},
      {"measurement": "EC50", "setting": "cells [8]", "value": "11.3 µM (active)"}
    ]},
    {"smiles": "CCn1/c(=N/C(=O)c2ccc(N3C(=O)CCC3=O)cc2)sc2c(OC)ccc(OC)c21", "values": [
      {"measurement": "IC50", "setting": "[9]", "value": "14.7 µM (active)"},
      {"measurement": "IC50", "setting": "[10]", "value": "> 100 µM (inactive)"},
      {"measurement": "EC50", "setting": "Estrogen receptor", "value": "7.94 µM (active)"}
    ]},
    {"smiles": "N#C/C(=C\\c1ccc(N2CCOCC2)o1)C(=O)Nc1ccc(O)cc1", "values": [
      {"measurement": "EC50", "setting": "[11]", "value": "> 100 µM (active)"},
      {"measurement": "IC50", "setting": "Large T antigen", "value": "15.2 µM (active)"}
    ]},
    {"smiles": "Cc1nn(-c2ccccc2)c2sc(C(=O)c3c(N)n(C)c(=O)n(C)c3=O)cc12", "values": [
      {"measurement": "EC50", "setting": "Estrogen receptor", "value": "12.6 µM (active)"}
    ]},
    {"smiles": "Cc1cc(N=C(S)Nc2ccc(C)c(Cl)c2)[nH]n1", "values": [
      {"measurement": "IC50", "setting": "[12]", "value": "> 50 µM (not active)"},
      {"measurement": "EC50", "setting": "[13]", "value": "8.11 µM (active)"},
      {"measurement": "EC50", "setting": "H4", "value": "14.8 µM (active)"},
      {"measurement": "EC50", "setting": "[14]", "value": "76.2 µM (active)"}
    ]}
  ]
}
